Assay results: patent US8329904B2, “Azacyclic derivatives” (Hoffmann-La Roche Inc., priority 2009, dated 2012)

Molecular target: T1, human HSL (Homo sapiens, UniProt Q05469)
T1 construct: overlapping PCR to generate a full length human HSL ORF with a 3′-His6 tag; His6 (C); made in house; host or cells: High 5 insect cells (baculovirus, pFast-BAC)
T1 sequence (Q05469 1-1076): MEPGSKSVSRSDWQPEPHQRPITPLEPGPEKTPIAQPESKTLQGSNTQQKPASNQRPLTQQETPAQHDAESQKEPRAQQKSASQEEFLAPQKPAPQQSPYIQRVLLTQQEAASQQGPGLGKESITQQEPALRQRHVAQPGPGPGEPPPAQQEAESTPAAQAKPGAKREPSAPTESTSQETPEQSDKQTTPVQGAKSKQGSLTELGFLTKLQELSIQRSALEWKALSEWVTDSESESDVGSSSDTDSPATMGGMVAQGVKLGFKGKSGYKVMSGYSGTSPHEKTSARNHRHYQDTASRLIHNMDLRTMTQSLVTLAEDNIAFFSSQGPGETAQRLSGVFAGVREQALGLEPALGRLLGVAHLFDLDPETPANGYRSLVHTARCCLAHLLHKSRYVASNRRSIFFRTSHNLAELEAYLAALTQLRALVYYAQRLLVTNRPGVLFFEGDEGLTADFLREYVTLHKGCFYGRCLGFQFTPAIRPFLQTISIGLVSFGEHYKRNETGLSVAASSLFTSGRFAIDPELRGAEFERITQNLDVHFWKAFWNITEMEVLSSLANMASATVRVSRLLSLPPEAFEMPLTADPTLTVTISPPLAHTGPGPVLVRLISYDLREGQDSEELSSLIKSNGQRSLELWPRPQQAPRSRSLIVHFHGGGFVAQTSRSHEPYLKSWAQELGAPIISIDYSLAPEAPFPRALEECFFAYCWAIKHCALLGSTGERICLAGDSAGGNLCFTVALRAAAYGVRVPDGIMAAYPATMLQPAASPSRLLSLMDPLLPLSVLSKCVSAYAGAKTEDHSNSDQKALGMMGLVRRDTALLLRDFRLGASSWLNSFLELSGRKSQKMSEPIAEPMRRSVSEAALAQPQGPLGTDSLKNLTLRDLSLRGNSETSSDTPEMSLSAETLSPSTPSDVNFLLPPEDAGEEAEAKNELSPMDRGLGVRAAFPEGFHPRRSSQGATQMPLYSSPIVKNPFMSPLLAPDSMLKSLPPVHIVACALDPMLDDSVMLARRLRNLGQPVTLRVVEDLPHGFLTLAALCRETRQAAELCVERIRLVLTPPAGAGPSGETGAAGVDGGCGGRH
Test: Human Hormone-Sensitive Lipase (HSL) Enzyme Inhibition Assay
Assay type: biochemical
Conditions: colorimetric assay, 2,3-dimercapto-1-propanol tributyrate (DMPT) substrate, 37° C. for 20 minutes, absorbance at 405 nm; read-out: HSL hum IC50
Summary of the method: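 Colorimetric thioester hydrolysis: compounds in DMSO series mixed with DMPT (1.5 mM) in MOPS pH 7.2 with BSA, then baculovirus-expressed His6-tagged full-length human HSL added, 37° C, 20 min. DTNB plus detergents added, 15 min room temperature, absorbance at 405 nm.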

IC50 [nM] | SMILES
80 | CCCc1ccc(N2CCC3(CCN(C(=O)CC(C)(C)C)CC3)C2=O)cc1 [Example 31, 8-(3,3-Dimethyl-butyryl)-2-(4-propyl-phenyl)-2,8-diaza-spiro[4.5]decan-1-one]
30 | CCn1ncc2cc(N3CCC4(CCN(S(=O)(=O)c5ccccc5Cl)CC4)C3=O)ccc21 [Example 126, 8-(2-Chloro-benzenesulfonyl)-2-(1-ethyl-1H-indazol-5-yl)-2,8-diaza-spiro[4.5]decan-1-one]
60 | O=C(COc1ccccc1)N1CCC2(CC1)CCN(c1ccc(OC(F)(F)F)cc1)C2=O [Example 221, 8-(2-Phenoxy-acetyl)-2-(4-trifluoromethoxy-phenyl)-2,8-diaza-spiro[4.5]decan-1-one]
30 | CC(Oc1ccc(N2CCC3(CCN(S(=O)(=O)c4ccccc4OC(F)(F)F)CC3)C2=O)cn1)C(F)(F)F (stereo not drawn) [Example 89, 8-(2-Trifluoromethoxy-benzenesulfonyl)-2-[6-(2,2,2-trifluoro-1-methyl-ethoxy)-pyridin-3-yl]-2,8-diaza-spiro[4.5]decan-1-one]
60 | CC(C)(C)CC(=O)N1CCC2(CC1)CCN(c1ccc(OC(F)(F)F)cc1)C2=O [Example 7, 8-(3,3-Dimethyl-butyryl)-2-(4-trifluoromethoxy-phenyl)-2,8-diaza-spiro[4.5]decan-1-one]
270 | CCc1ccc(N2CCC3(CCN(S(=O)(=O)N4CCOCC4)CC3)C2=O)cc1 [Example 21, 2-(4-Ethyl-phenyl)-8-(morpholine-4-sulfonyl)-2,8-diaza-spiro[4.5]decan-1-one]
100 | CC(C(=O)N1CCC2(CC1)CCN(c1ccc(OC(F)(F)F)cc1)C2=O)c1ccccc1 (stereo not drawn) [Example 222, 8-(2-Phenyl-propionyl)-2-(4-trifluoromethoxy-phenyl)-2,8-diaza-spiro[4.5]decan-1-one]
140 | O=C(NCCc1ccccc1)N1CCC2(CC1)CCN(c1ccc(OC(F)(F)F)cc1)C2=O [Example 264, 1-Oxo-2-(4-trifluoromethoxy-phenyl)-2,8-diaza-spiro[4.5]decane-8-carboxylic acid phenethyl-amide]
60 | O=C1N(c2ccc(OCC(F)(F)F)nc2)CCC12CCN(S(=O)(=O)c1ccccc1)CC2 [Example 117, 8-Benzenesulfonyl-2-[6-(2,2,2-trifluoro-ethoxy)-pyridin-3-yl]-2,8-diaza-spiro[4.5]decan-1-one]
60 | CCN(C(=O)N1CCC2(CC1)CCN(c1ccc(OC(F)(F)F)cc1)C2=O)c1ccc(OC(F)(F)F)cc1 [Example 311, 1-Oxo-2-(4-trifluoromethoxy-phenyl)-2,8-diaza-spiro[4.5]decane-8-carboxylic acid ethyl-(4-trifluoromethoxy-phenyl)-amide]
240 | CCc1ccc(N2CCC3(CCN(C(=O)CC(C)(C)C)CC3)C2=O)cc1 [Example 20, 8-(3,3-Dimethyl-butyryl)-2-(4-ethyl-phenyl)-2,8-diaza-spiro[4.5]decan-1-one]
60 | O=C1N(c2ccc(OC(F)(F)F)cc2)CCC12CCN(S(=O)(=O)CC1(O)CCCC1)CC2 [Example 210, 8-(1-Hydroxy-cyclopentylmethanesulfonyl)-2-(4-trifluoromethoxy-phenyl)-2,8-diaza-spiro[4.5]decan-1-one]
200 | CCCS(=O)(=O)N1CCC2(CCN(c3ccc(C4CC4)cc3)C2=O)CC1 [Example 39, 2-(4-Cyclopropyl-phenyl)-8-(propane-1-sulfonyl)-2,8-diaza-spiro[4.5]decan-1-one]
120 | CN(Cc1ccccc1)C(=O)N1CCC2(CC1)CCN(c1ccc(OC(F)(F)F)cc1)C2=O [Example 278, 1-Oxo-2-(4-trifluoromethoxy-phenyl)-2,8-diaza-spiro[4.5]decane-8-carboxylic acid benzyl-methyl-amide]
50 | O=C1N(c2ccc(OCCC(F)(F)F)cc2)CCC12CCN(S(=O)(=O)c1ccccc1OC(F)(F)F)CC2 [Example 103, 8-(2-Trifluoromethoxy-benzenesulfonyl)-2-[4-(3,3,3-trifluoro-propoxy)-phenyl]-2,8-diaza-spiro[4.5]decan-1-one]
90 | CC(C)CN(C)C(=O)N1CCC2(CC1)CCN(c1ccc(C3CC3)cc1)C2=O [Example 313, 2-(4-Cyclopropyl-phenyl)-1-oxo-2,8-diaza-spiro[4.5]decane-8-carboxylic acid isobutyl-methyl-amide]
460 | CC(Cc1ccc(F)cc1)N1CCC2(CCN(S(=O)(=O)c3ccccc3Cl)CC2)C1=O (stereo not drawn) [Example 249, 8-(2-Chloro-benzenesulfonyl)-2-[2-(4-fluoro-phenyl)-1-methyl-ethyl]-2,8-diaza-spiro[4.5]decan-1-one]
70 | CC(C)NS(=O)(=O)N1CCC2(CCN(c3ccc(OC(F)(F)F)cc3)C2=O)CC1 [Example 285, 1-Oxo-2-(4-trifluoromethoxy-phenyl)-2,8-diaza-spiro[4.5]decane-8-sulfonic acid isopropylamide]
50 | O=C1N(c2ccc(OC(F)(F)F)cc2)CCCC12CCN(S(=O)(=O)c1ccccc1)CC2 [Example 9, 9-Benzenesulfonyl-2-(4-trifluoromethoxy-phenyl)-2,9-diaza-spiro[5.5]undecan-1-one]
170 | CC(C)Oc1ccc(N2CCC3(CCN(S(=O)(=O)CC4CCC4)CC3)C2=O)cc1 [Example 92, 8-Cyclobutylmethanesulfonyl-2-(4-isopropoxy-phenyl)-2,8-diaza-spiro[4.5]decan-1-one]
50 | Cn1ncc2cc(N3CCC4(CCN(S(=O)(=O)c5ccccc5Cl)CC4)C3=O)ccc21 [Example 130, 8-(2-Chloro-benzenesulfonyl)-2-(1-methyl-1H-indazol-5-yl)-2,8-diaza-spiro[4.5]decan-1-one]
220 | CCCN(CC)C(=O)N1CCC2(CC1)CCN(c1ccc(OC(F)(F)F)cc1)C2=O [Example 268, 1-Oxo-2-(4-trifluoromethoxy-phenyl)-2,8-diaza-spiro[4.5]decane-8-carboxylic acid ethyl-propyl-amide]
20 | O=C1N(c2ccc(C(O)C(F)(F)F)cc2)CCC12CCN(S(=O)(=O)c1ccccc1C(F)(F)F)CC2 (stereo not drawn) [Example 166, 2-(4-(2,2,2-trifluoro-1-hydroxyethyl)phenyl)-8-(2-(trifluoromethyl)phenylsulfonyl)-2,8-diazaspiro[4.5]decan-1-one]
150 | CCC(C)c1ccc(N2CCC3(CCN(C(=O)CC(C)(C)C)CC3)C2=O)cc1 (stereo not drawn) [Example 46, 2-(4-sec-Butyl-phenyl)-8-(3,3-dimethyl-butyryl)-2,8-diaza-spiro[4.5]decan-1-one]
900 | CC(C)NC(=O)c1ccc(N2CCC3(CCN(S(=O)(=O)c4ccccc4Cl)CC3)C2=O)cc1 [Example 160, 4-[8-(2-Chloro-benzenesulfonyl)-1-oxo-2,8-diaza-spiro[4.5]dec-2-yl]-N-isopropyl-benzamide]
40 | CC(C)CS(=O)(=O)N1CCC2(CCN(c3ccc(CC(F)(F)F)cc3)C2=O)CC1 [Example 60, 8-(2-Methyl-propane-1-sulfonyl)-2-[4-(2,2,2-trifluoro-ethyl)-phenyl]-2,8-diaza-spiro[4.5]decan-1-one]
50 | CCOC(=O)Cc1ccc(N2CCC3(CCN(S(=O)(=O)c4ccccc4Cl)CC3)C2=O)cc1 [Example 134, {4-[8-(2-Chloro-benzenesulfonyl)-1-oxo-2,8-diaza-spiro[4.5]dec-2-yl]-phenyl}-acetic acid ethyl ester]
